The target in test [1] is T1, norepinephrine (NE) uptake (Rattus norvegicus, UniProt Q63380).
T1 construct: synaptosomal preparations were made from either whole brain (5-HT), striatum (DA) or hypothalamus (NE); from tissue; host or cells: rat hypothalamus synaptosomes
Description: Inhibition of [3H]NE uptake in rat hypothalamus synaptosomes. Type of test: biochemical. As to conditions: 500 nM, 20 min at 37° C. As to the method:
(§1) The effects of arylbicyclo[3.1.0]hexylamines of the invention for inhibiting transport of norepinephrine (NE) and/or dopamine (DA) and/or serotonin (5-HT) were evaluated using preparations of synaptosomes from different regions of the rat brain according to previously-reported techniques.
(§2) Whole brains were obtained from normal rats, and synaptosomal preparations were made from either whole brain (5-HT), striatum (DA) or hypothalamus (NE) by gentle disruption in 10 volumes (w/v) of 0.32 M sucrose (0-4° C.) using a Teflon-glass homogenizer. The homogenate was then centrifuged at 1000×g for 10 min. The supernatant was retained and centrifuged at 23000 g for 20 min. The resulting pellet was gently resuspended in 200 volumes of 0.32 M sucrose (0-4° C.) using a teflon-glass homogenizer. Aliquots (250 μL) of this preparation were added to tubes, along with 0.2 μCi/mL of [^3H]5-HT, [^3H]DA, or [^3H]NE, 200 μL of selected 1-arylbicyclo[3.1.0]hexanamine test compounds (to yield final concentrations of 500 nM) and 1 mL of Krebs-Ringer bicarbonate buffer (pH 7.4). […] At the end of this period, the assay was terminated by rapid filtration over Whatman GF/C glass fiber filters. The filters were rinsed 3 times with 4 ml of Krebs-Ringer bicarbonate buffer (0-4° C.), and the radioactivity retained on the filters was measured by liquid scintillation spectrometry.

In test [2] the target is T2, serotonin (5-HT) uptake (Rattus norvegicus, UniProt P31652).
T2 construct: synaptosomal preparations were made from either whole brain (5-HT), striatum (DA) or hypothalamus (NE); from tissue; host or cells: rat whole brain synaptosomes
T2 sequence (P31652 whole entry): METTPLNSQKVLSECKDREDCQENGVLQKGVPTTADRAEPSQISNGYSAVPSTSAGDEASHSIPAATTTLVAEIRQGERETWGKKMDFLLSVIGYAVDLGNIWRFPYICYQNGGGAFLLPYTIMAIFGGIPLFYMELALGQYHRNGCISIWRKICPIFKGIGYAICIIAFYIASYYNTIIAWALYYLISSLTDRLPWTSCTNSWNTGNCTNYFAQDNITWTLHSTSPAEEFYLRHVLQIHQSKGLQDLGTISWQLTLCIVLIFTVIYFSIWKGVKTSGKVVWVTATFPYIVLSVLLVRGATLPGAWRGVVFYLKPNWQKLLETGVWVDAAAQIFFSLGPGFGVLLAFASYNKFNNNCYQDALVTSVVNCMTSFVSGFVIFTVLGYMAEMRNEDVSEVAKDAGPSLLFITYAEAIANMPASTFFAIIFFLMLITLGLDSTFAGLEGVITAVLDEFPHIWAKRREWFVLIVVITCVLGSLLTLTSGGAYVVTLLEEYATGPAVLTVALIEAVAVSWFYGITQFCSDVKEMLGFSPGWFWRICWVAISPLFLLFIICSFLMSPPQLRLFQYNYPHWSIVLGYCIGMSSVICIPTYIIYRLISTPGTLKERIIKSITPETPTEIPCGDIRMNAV
As to the kind of experiment: biochemical. The settings on record: read-out: Uptake Inhibition % at 500 nM 5-HT. Here is the method: as §1, §2

Test [3] addresses T3, dopamine (DA) uptake (Rattus norvegicus, UniProt P23977).
T3 construct: synaptosomal preparations were made from either whole brain (5-HT), striatum (DA) or hypothalamus (NE); from tissue; host or cells: rat striatum synaptosomes
Description: biochemical. As to conditions: read-out: Uptake Inhibition % at 500 nM DA. As to the method: as §1, §2

T3 sequence (P23977 whole entry): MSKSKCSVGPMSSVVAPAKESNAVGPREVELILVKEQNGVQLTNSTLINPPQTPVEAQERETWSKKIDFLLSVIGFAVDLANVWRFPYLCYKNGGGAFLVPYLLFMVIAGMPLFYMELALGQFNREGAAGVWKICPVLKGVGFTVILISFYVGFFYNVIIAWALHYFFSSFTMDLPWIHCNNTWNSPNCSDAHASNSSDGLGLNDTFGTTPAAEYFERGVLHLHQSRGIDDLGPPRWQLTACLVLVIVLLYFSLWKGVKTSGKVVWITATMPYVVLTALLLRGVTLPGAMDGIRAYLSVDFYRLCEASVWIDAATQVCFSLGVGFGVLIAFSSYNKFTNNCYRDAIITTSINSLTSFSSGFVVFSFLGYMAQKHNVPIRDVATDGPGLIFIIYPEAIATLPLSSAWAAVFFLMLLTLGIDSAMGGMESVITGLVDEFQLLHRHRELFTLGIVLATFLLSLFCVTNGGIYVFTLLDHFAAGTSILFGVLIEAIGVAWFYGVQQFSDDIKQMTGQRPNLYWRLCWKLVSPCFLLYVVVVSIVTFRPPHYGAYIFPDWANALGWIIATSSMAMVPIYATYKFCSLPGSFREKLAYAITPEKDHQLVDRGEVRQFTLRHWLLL
T1 sequence (Q63380 1-617): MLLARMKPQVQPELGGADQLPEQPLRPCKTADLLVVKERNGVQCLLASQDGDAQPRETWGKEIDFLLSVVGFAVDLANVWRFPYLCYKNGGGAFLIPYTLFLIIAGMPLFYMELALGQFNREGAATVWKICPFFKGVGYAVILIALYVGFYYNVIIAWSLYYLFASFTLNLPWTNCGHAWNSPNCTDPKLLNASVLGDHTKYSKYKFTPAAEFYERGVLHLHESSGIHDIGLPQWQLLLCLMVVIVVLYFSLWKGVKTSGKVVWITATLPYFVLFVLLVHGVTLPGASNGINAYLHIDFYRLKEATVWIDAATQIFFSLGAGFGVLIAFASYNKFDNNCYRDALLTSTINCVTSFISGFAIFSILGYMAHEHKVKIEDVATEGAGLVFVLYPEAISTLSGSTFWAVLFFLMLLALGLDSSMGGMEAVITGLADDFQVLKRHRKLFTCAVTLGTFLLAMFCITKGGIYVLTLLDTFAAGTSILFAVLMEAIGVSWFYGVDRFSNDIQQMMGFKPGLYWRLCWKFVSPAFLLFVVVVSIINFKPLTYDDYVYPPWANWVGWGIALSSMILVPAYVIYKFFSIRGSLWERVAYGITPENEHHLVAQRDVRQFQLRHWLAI

For `NC1C[C@H]2C[C@]2(c2cccc3ccccc23)C1` (stereo partly drawn) [5-p-tolylbicydo[3.1.0]hexan-2-amine], the results for the inhibition at 0.5 µM in test [1], in test [2] and in test [3] were 42%, 74% and 39%, respectively.

For `NC1C[C@H]2C[C@]2(c2ccc(Cl)c(Cl)c2)C1` (stereo partly drawn), the inhibition at 0.5 µM in test [1] worked out at 59%; in test [2], 75%; in test [3], 83%.
